# Measured values: patent US10647694B2, “Diphenylaminopyrimidine and triazine compound, and pharmaceutical composition and use thereof” (ARROMAX PHARMATECH CO., LTD., priority 2016, dated 2020)
# Target: ALK enzyme (Homo sapiens, UniProt Q9UM73)
# Assay: In-vitro ALK kinase inhibitory activity (HTRF kinEASE TK kit)
# Assay type: biochemical
# Settings: inhibitory activity for ALK enzyme, read-out: IC50 range
# Description: Anaplastic Lymphoma Kinase (ALK) Inhibitory Activity The in-vitro kinase assay was performed using the HTRF kinEASE TK kit available from Cisbio. The operation steps are indicated in the instructions of the kit. This method was used to detect the inhibitory effect of the compound to be tested on the activity of ALK enzymes in vitro, including wild-type ALK (Cat.PV3867, Invitrogen), ALK L1196M (Cat. PV6168, Life technologies), and ALK F1174L (Cat. PV6160, Life technologies). The specific operation steps were as follows. […] In addition to the control wells, 4 μL of the diluted compound solution to be tested was added to the reaction wells, and 4 μL of the 2.5% DMSO solution corresponding to the ALK enzyme previously formulated was added to the control wells. (2) 2 μL of a TK-biotin substrate solution previously formulated in a substrate concentration corresponding to the ALK enzyme was added to all reaction wells. (3) 2 μL of a previously prepared enzyme solution of corresponding concentration was added to all the reaction wells except the negative wells, and 2 μL of the 1× kinase buffer corresponding to the enzyme was added to the negative wells to make up the volume. The plate was sealed with a membrane, and incubated for 10 min at room temperature after mixing uniformly, such that the compounds were bond to the enzyme fully. (4) 2 μL of an ATP solution in a concentration corresponding to the ALK enzyme was added to all the reaction wells to initiate the kinase reaction, where the enzyme reaction time by ALK was 60 minutes. (5) An ALK test solution was prepared 5 minutes before the end of the kinase reaction. Streptavidin-XL665 and TK antibody europium cryptate (1:100) solutions for assay having a concentration corresponding to the enzyme were prepared using the detection buffer in the kit. (6) After the completion of the kinase reaction, 5 μl of diluted Streptavidin-XL665 was added to all the reaction wells respectively, and mixed uniformly, and then the diluted TK antibody europium cryptate solution for assay was added immediately. (7) The plate was sealed, mixed uniformly and allowed to react at room temperature for 1 h. The fluorescence signal (excitation at 320 nm, and emission at 665 nm and 615 nm) was detected using the ENVISION instrument (Perkinelmer). The inhibition rate for each well was calculated from the values of the fully active wells and the background signal wells. The values of replicated wells were averaged, and the half-maximal inhibitory activity (IC50) of each compound to be tested was fitted with a professional drawing analysis software PRISM 5.0.
# Chain of ALK enzyme (Q9UM73 19-1620 limits assumed): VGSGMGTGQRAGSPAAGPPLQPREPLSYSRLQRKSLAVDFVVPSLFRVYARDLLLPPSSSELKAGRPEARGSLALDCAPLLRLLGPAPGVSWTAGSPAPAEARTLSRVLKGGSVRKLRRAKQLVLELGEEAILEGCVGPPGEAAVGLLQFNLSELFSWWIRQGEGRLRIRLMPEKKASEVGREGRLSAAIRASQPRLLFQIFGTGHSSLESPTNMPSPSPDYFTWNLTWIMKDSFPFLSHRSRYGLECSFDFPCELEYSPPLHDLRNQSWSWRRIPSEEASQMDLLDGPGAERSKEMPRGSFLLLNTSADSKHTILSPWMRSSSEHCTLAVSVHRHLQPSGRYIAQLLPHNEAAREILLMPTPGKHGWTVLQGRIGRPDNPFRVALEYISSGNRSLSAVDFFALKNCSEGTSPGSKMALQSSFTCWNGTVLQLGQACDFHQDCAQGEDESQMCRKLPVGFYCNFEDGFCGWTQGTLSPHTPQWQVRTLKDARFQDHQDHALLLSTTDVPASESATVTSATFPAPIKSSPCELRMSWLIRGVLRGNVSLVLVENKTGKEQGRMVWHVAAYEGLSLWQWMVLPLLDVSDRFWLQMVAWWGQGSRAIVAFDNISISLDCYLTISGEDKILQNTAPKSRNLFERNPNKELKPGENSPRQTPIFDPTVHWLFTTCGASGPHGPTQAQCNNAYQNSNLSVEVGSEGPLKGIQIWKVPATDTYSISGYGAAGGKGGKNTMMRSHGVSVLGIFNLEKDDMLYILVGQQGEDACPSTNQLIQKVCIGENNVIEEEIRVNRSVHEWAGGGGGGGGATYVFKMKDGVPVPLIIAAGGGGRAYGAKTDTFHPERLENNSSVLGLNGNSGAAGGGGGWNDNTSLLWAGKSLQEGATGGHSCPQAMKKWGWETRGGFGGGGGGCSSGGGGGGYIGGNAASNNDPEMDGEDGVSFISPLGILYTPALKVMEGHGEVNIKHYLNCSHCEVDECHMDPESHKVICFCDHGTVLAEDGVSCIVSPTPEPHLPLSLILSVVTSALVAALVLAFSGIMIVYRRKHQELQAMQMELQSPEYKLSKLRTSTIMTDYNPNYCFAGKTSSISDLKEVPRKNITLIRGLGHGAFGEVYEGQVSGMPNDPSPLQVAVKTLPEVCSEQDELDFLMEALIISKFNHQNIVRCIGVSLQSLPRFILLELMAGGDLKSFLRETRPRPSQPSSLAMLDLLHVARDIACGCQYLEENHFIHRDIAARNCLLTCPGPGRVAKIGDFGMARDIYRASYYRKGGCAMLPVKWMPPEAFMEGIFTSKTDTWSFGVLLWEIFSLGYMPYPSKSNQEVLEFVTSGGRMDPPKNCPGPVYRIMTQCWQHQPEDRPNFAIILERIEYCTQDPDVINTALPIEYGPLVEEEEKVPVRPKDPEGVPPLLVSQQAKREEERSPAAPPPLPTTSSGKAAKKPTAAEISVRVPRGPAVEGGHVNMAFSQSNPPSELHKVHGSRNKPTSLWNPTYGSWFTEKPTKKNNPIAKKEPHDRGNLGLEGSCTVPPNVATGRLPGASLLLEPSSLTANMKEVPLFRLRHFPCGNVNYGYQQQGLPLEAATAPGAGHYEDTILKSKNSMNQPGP
row,Structure (SMILES),IC50 [nM]
1,"COc1cc(N2CCC(N(C)C)CC2)ccc1Nc1ncc(Cl)c(Nc2ccccc2P(C)(C)=O)n1 [Compound I-37, (2-((5-chloro-2-((4-(4-(dimethylamino)piperidin-1-yl)-2-D3-methoxyphenyl)amino)pyrimidin-4-yl)amino)phenyl)dimethylphosphorus oxide]",1 to 10
2,"COc1cc(N2CCC(N3CCOCC3)CC2)ccc1Nc1nc(Nc2ccccc2S(=O)(=O)C(C)C)c2ccccc2n1 [Compound I-28, N4-(2-(isopropylsulfonyl)phenyl)-N2-(2-D3-methoxy-4-(4-morpholinopiperidin-1-yl)phenyl)quinazolin-2,4-diamine]",10 to 100
3,"COc1cc(C2CCNCC2)c(C)cc1Nc1ncc(OC)c(Nc2ccccc2S(=O)(=O)C(C)C)n1 [Compound I-7, N4-(2-(isopropylsulfonyl)phenyl)-5-methoxy-N2-(2-D3-methoxy-5-methyl-4-(piperidin-4-yl)phenyl)pyrimidin-2,4-diamine]",1 to 10
4,"COc1cc(N2CCC(N(C)C)CC2)ccc1Nc1nc(Nc2ccccc2S(=O)(=O)C(C)C)c2ccsc2n1 [Compound I-26, N2-(4-(4-(dimethylamino)piperidin-1-yl)-2-D3-methoxyphenyl)-N4-(2-(isopropylsulfonyl)phenyl)thieno[2,3-d]pyrimidin-2,4-diamine]",10 to 100
5,"COc1cc(N2CCNCC2)c(C)cc1Nc1ncc(Cl)c(Nc2ccccc2S(=O)(=O)C(C)C)n1 [Compound I-17, 5-chloro-N4-(2-(isopropylsulfonyl)phenyl)-N2-(2-D3-methoxy-4-(piperazin-1-yl)-5-methyl-phenyl)pyrimidin-2,4-diamine]",1 to 10
6,"COc1cc(N2CCNCC2)c(C)cc1Nc1ncnc(Nc2ccccc2S(=O)(=O)C(C)C)n1 [Compound I-42, N2-(2-D3-methoxy-4-(piperazin-1-yl)-5-methyl-phenyl)-N4-(2-(isopropylsulfonyl)phenyl)-1,3,5-triazin-2,4-diamine]",1 to 10
7,"COc1cc(C2CCNCC2)c(C)cc1Nc1nccc(Nc2ccccc2S(=O)(=O)C(C)C)n1 [Compound I-1, N4-(2-(isopropylsulfonyl)phenyl)-N2-(2-D3-methoxy-5-methyl-4-(piperidin-4-yl)phenyl)pyrimidin-2,4-diamine]",1 to 10
8,"COc1cc(C2CCNCC2)c(C)cc1Nc1ncc(F)c(Nc2ccccc2S(=O)(=O)C(C)C)n1 [Compound I-2, 5-fluoro-N4-(2-(isopropylsulfonyl)phenyl)-N2-(2-D3-methoxy-5-methyl-4-(piperidin-4-yl)phenyl)pyrimidin-2,4-diamine]",1 to 10
9,"COc1cc(N2CCC(N(C)C)CC2)ccc1Nc1nc(Nc2ccccc2S(=O)(=O)C(C)C)c2sccc2n1 [Compound I-27, N2-(4-(4-(dimethylamino)piperidin-1-yl)-2-D3-methoxyphenyl)-N4-(2-(isopropylsulfonyl)phenyl)thieno[3,2-d]pyrimidin-2,4-diamine]",10 to 100
10,"COc1cc(N2CCC(N3CCOCC3)CC2)ccc1Nc1ncc(Cl)c(Nc2ccccc2S(=O)(=O)C(C)C)n1 [Compound I-35, 5-chloro-N4-(2-(isopropylsulfonyl)phenyl)-N2-(2-D3-methoxy-4-(4-morpholinopiperidin-1-yl)phenyl)pyrimidin-2,4-diamine]",1 to 10
11,"CCc1cc(Nc2ncc(Cl)c(Nc3ccccc3S(=O)(=O)C(C)C)n2)c(OC)cc1C1CCNCC1 [Compound 44, reference compound]",10 to 100
12,"COc1cc(C2CCNCC2)c(C)cc1Nc1ncc(-c2ccccc2)c(Nc2ccccc2S(=O)(=O)C(C)C)n1 [Compound I-11, N4-(2-(isopropylsulfonyl)phenyl)-N2-(2-D3-methoxy-5-methyl-4-(piperidin-4-yl)phenyl)-5-phenylpyrimidin-2,4-diamine]",10 to 100
